Experimental findings from ChEMBL document CHEMBL1131493, “Inhibitors of farnesyl protein transferase. 4-Amido, 4-carbamoyl, and 4-carboxamido derivatives of 1-(8-chloro-6,11-dihydro-5H-benzo[5,6]- cyclohepta[1,2-b]pyridin-11-yl)piperazine and 1-(3-bromo-8-chloro-6,11- dihydro-5H-benzo[5,6]cyclohepta[1,2-b]pyridin-11-yl)piperazine” (J Med Chem, 1998) are described below.

The target in the test is Protein farnesyltransferase (Homo sapiens, UniProt P49354+P49356). In words: In vitro inhibition of farnesyltransferase farnesylation of the H-ras oncogene. On the set-up: Inhibition: concentration or dose not given beside the values. It is filed as protein-complex assay.

SMILES strings stand for the structures.

`O=C(Nc1cc[n+]([O-])cc1)N1CCN(C2c3ccc(Cl)cc3CCc3cccnc32)CC1` (stereo not given) returned an IC50 of 1.8 µM.

With `CC(C)(C(=O)N1CCN(C2c3ccc(Cl)cc3CCc3cccnc32)CC1)c1cc[n+]([O-])cc1` (stereo not given), the IC50 turned out to be 2.2 µM.

As for `CC(S)C(=O)NCC(=O)N1CCN(C2c3ccc(Cl)cc3CCc3cccnc32)CC1` (stereo not given), the IC50 came out at 2.78 µM.

With `O=C(Cc1cc[n+]([O-])cc1)N1CCN(C2c3ccc(Cl)cc3CCc3c(Cl)ccnc32)CC1` (stereo not given), the IC50 was 0.33 µM.

For the compound `O=C(N1CCN(C2c3ccc(Cl)cc3CCc3cc(Br)cnc32)CC1)n1ccnc1` (stereo not given), the half-maximal inhibitory concentration (IC50) was 1.77 µM.

Take `C[C@H](N)C(=O)N1CCC(CC(=O)N2CCN(C3c4ccc(Cl)cc4CCc4cccnc43)CC2)CC1` (stereo not given in full): half-maximal inhibition (IC50) required 2.5 µM.

Consider `O=C(Nc1cccnc1)N1CCN([C@@H]2c3ccc(Cl)cc3CCc3cccnc32)CC1`, for which inhibition was half-maximal at 3.2 µM (IC50).

Consider `NC(=O)N1CCC(CC(=O)N2CCN(C3c4ccc(Cl)cc4CCc4cccnc43)CC2)CC1` (stereo not given), for which the 50% inhibitory concentration (IC50) came out at 0.82 µM.

Compound `CN1CCC(CC(=O)N2CCN([C@@H]3c4ccc(Cl)cc4CCc4cccnc43)CC2)CC1` came in with an IC50 of 1.8 µM.

The compound `O=C(Oc1ccc[n+]([O-])c1)N1CCN(C2c3ccc(Cl)cc3CCc3cccnc32)CC1` (stereo not given) registered an IC50 of 3.1 µM.

Turning to `O=C(c1cccc2ncccc12)N1CCN(C2c3ccc(Cl)cc3CCc3cc(Br)cnc32)CC1` (stereo not given), the Inhibition is 38%.

Consider `CC(C)(C)NC(=O)N1CCC(CC(=O)N2CCN(C3c4ccc(Cl)cc4CCc4cccnc43)CC2)CC1` (stereo not given), for which the 50% inhibitory concentration (IC50) came to 1 µM.

`O=C(c1cccc2ncccc12)N1CCN(C2c3ccc(Cl)cc3CCc3cccnc32)CC1` (stereo not given) had an Inhibition of 15%.

The compound `CNC(=O)N1CCC(CC(=O)N2CCN(C3c4ccc(Cl)cc4CCc4cccnc43)CC2)CC1` (stereo not given) showed an IC50 of 1.05 µM.

The compound `Clc1ccc2c(c1)CCc1cccnc1C2N1CCNCC1` (stereo not given) came in with an IC50 of 30.3 µM.

Compound `CN1CCC(OC(=O)N2CCN(C3c4ccc(Cl)cc4CCc4cccnc43)CC2)CC1` (stereo not given) registered an Inhibition of 35%.

The compound `CNC(=S)N1CCC(CC(=O)N2CCN(C3c4ccc(Cl)cc4CCc4cccnc43)CC2)CC1` (stereo not given) gave an IC50 of 0.88 µM.

Regarding `O=C(Nc1ccc[n+]([O-])c1)N1CCN(C2c3ccc(Cl)cc3CCc3cccnc32)CC1` (stereo not given), 2.2 µM corresponded to half-maximal inhibition (IC50).

`NC(=O)N1CCCc2c(C(=O)N3CCN(C4c5ccc(Cl)cc5CCc5cc(Br)cnc54)CC3)cccc21` (stereo not given) returned an Inhibition of 45%.

In turn, `O=C(Oc1ccccc1)N1CCN(C2c3ccc(Cl)cc3C=Cc3cccnc32)CC1` (stereo not given) had an IC50 of 0.88 µM.

In turn, `CC(C)(C(=O)N1CCN(C2c3ccc(Cl)cc3CCc3cccnc32)CC1)c1ccc[n+]([O-])c1` (stereo not given) came in with an IC50 of 1.26 µM.

Compound `CN1CCC(CC(=O)N2CCN([C@H]3c4ccc(Cl)cc4CCc4cccnc43)CC2)CC1` returned an IC50 of 0.64 µM.

Regarding `O=C(C1CCNCC1)N1CCN(C2c3ccc(Cl)cc3CCc3cccnc32)CC1` (stereo not given), the IC50 turned out to be 11.3 µM.

For `CN1CCCC(OC(=O)N2CCN(C3c4ccc(Cl)cc4CCc4cccnc43)CC2)C1` (stereo not given), inhibition was half-maximal at 2.1 µM (IC50).

`CC(=O)N1CCC(CC(=O)N2CCN([C@@H]3c4ccc(Cl)cc4CCc4cccnc43)CC2)CC1` gave an IC50 of 3.5 µM.

Compound `CC(=O)N1CCCC(C(=O)N2CCN(C3c4ccc(Cl)cc4CCc4cccnc43)CC2)C1` (stereo not given) gave a 50% inhibitory concentration (IC50) of 4.3 µM.

`CC(C)(C)OC(=O)N1CCC(CC(=O)N2CCN(C3c4ccc(Cl)cc4CCc4cc(Br)cnc43)CC2)CC1` (stereo not given) yielded an IC50 of 1.29 µM.

On to `O=C(Cc1cccnc1)N1CCN(C(=O)c2ccc(Cl)cc2)CC1`, for which the Inhibition turned out to be 32%.

The compound `CC(C)(C)OC(=O)N1CCC(C(=O)N2CCN(C3c4ccc(Cl)cc4CCc4cccnc43)CC2)CC1` (stereo not given) came in with an Inhibition of 20%.

Compound `CN1CCCC(CC(=O)N2CCN([C@@H]3c4ccc(Cl)cc4CCc4cccnc43)CC2)C1` (stereo not given in full) came in with an IC50 of 0.7 µM.

Regarding `O=C(CC1CCNCC1)N1CCN([C@H]2c3ccc(Cl)cc3CCc3cc(Br)cnc32)CC1`, 0.078 µM corresponded to half-maximal inhibition (IC50).

In turn, `N[C@@H](CS)C(=O)N1CCC(CC(=O)N2CCN(C3c4ccc(Cl)cc4CCc4cc(Br)cnc43)CC2)CC1` (stereo not given in full) yielded a half-inhibitory concentration (IC50) of 0.23 µM.

As to `CCCNC(=O)N1CCC(CC(=O)N2CCN(C3c4ccc(Cl)cc4CCc4cccnc43)CC2)CC1` (stereo not given), the IC50 worked out at 0.88 µM.

Compound `CN1CCCC(OC(=O)N2CCN(C3c4ccc(Cl)cc4CCc4cc(Br)cnc43)CC2)C1` (stereo not given) had an IC50 of 0.3 µM.

Compound `O=C(N1CCN(C2c3ccc(Cl)cc3CCc3cccnc32)CC1)n1ccnc1` (stereo not given) returned a concentration for half-maximal inhibition (IC50) of 9.8 µM.

`CC(C)(C)OC(=O)NCC(=O)N1CCN(C2c3ccc(Cl)cc3CCc3cccnc32)CC1` (stereo not given) came in with a 50% inhibitory concentration (IC50) of 4.8 µM.

Regarding `CN1CCCC(C(=O)N2CCN(C3c4ccc(Cl)cc4CCc4cccnc43)CC2)C1` (stereo not given), the IC50 was 6.8 µM.

In turn, `Clc1ccc2c(c1)CCc1cccnc1C2N1CCN(CCc2cccnc2)CC1` (stereo not given) came in with an Inhibition of 23%.

`O=C(c1cccc2c1ccc[n+]2[O-])N1CCN(C2c3ccc(Cl)cc3CCc3cc(Br)cnc32)CC1` (stereo not given) displayed an Inhibition of 38%.

With `CC(C(=O)N1CCN(C2c3ccc(Cl)cc3CCc3cccnc32)CC1)c1cccnc1` (stereo not given), the IC50 was determined as 4.9 µM.

The compound `NCNC(=O)N1CCC(CC(=O)N2CCN(C3c4ccc(Cl)cc4CCc4cccnc43)CC2)CC1` (stereo not given) came in with an IC50 of 2.5 µM.

As to `COCC[C@H]1CN(C2c3ccc(Cl)cc3CCc3cc(Br)cnc32)CCN1C(=O)CC1CCNCC1` (stereo not given in full), inhibition was half-maximal at 0.069 µM (IC50).

`CC(C)(C(=O)N1CCN(C2c3ccc(Cl)cc3CCc3cccnc32)CC1)c1ccncc1` (stereo not given): the 50% inhibitory concentration (IC50) was determined as 1.74 µM.

`O=C(CC1CCNCC1)N1CCN(C2c3ccc(Cl)cc3C=Cc3cc(Br)cnc32)CC1` (stereo not given) displayed an IC50 of 0.083 µM.

Regarding `COC(=O)N1CCC(CC(=O)N2CCN(C3c4ccc(Cl)cc4CCc4cccnc43)CC2)CC1` (stereo not given), the midpoint of inhibition, the IC50, lay at 1.3 µM.

With `N[C@@H](CS)CN1CCN(C2c3ccc(Cl)cc3CCc3cc(Br)cnc32)CC1` (stereo not given in full), the Inhibition is 19%.

Compound `CC(=O)N1CCCC(CC(=O)N2CCN(C3c4ccc(Cl)cc4CCc4cccnc43)CC2)C1` (stereo not given) showed a half-maximal inhibitory concentration (IC50) of 3.1 µM.

In turn, `NC(=O)N1CCCC2C(C(=O)N3CCN(C4c5ccc(Cl)cc5CCc5cc(Br)cnc54)CC3)CCCC21` (stereo not given) had an IC50 of 1.4 µM.

Regarding `NC(=O)N1CCCC(CC(=O)N2CCN(C3c4ccc(Cl)cc4CCc4cccnc43)CC2)C1` (stereo not given), the midpoint of inhibition, the IC50, lay at 1.75 µM.

`N[C@@H](CO)C(=O)N1CCC(CC(=O)N2CCN(C3c4ccc(Cl)cc4CCc4cccnc43)CC2)CC1` (stereo not given in full) returned an IC50 of 1.1 µM.

`O=C(Cc1cccnc1)N1CCN(C(c2ccncc2)c2ccc(Cl)cc2)CC1` (stereo not given) displayed an IC50 of 48 µM.

`CN1CCCC(NC(=O)N2CCN(C3c4ccc(Cl)cc4CCc4cc(Br)cnc43)CC2)C1` (stereo not given) came in with an IC50 of 0.054 µM.

`CN1CCCC(CC(=O)N2CCN([C@H]3c4ccc(Cl)cc4CCc4cccnc43)CC2)C1` (stereo not given in full) registered an IC50 of 0.6 µM.

With `CNC(=O)N1CCC[C@@H](CC(=O)N2CCN(C3c4ccc(Cl)cc4CCc4cccnc43)CC2)C1` (stereo not given in full), 7 µM corresponded to half-maximal inhibition (IC50).

`O=C(c1cccc2cccnc12)N1CCN(C2c3ccc(Cl)cc3CCc3cc(Br)cnc32)CC1` (stereo not given) showed an IC50 of 1.8 µM.

`CC(=O)N1CCC(C(=O)N2CCN([C@@H]3c4ccc(Cl)cc4CCc4cccnc43)CC2)CC1` gave an IC50 of 4.1 µM.

As to `CCNC(=O)N1CCC(CC(=O)N2CCN(C3c4ccc(Cl)cc4CCc4cccnc43)CC2)CC1` (stereo not given), the IC50 was 0.92 µM.

`O=C(Cc1ccncc1)NCCNC1c2ccc(Cl)cc2CCc2cccnc21` (stereo not given) yielded an IC50 of 25.8 µM.

For the compound `O=C(CC1CCCNC1)N1CCN(C2c3ccc(Cl)cc3CCc3cccnc32)CC1` (stereo not given), the midpoint of inhibition, the IC50, lay at 1.1 µM.

On to `COC(=O)N1CCCC(CC(=O)N2CCN(C3c4ccc(Cl)cc4CCc4cccnc43)CC2)C1` (stereo not given), for which the IC50 came out at 7 µM.
